Results taken from patent US20030045680A1, “Peptidic modulators of the androgen receptor” (Praecis Pharmaceuticals Inc., priority 2001, published 2003).
Square brackets hold non-standard residues; d marks the D form. Peptide text beside a SMILES is read from it.

T1: glutathione S-transferase/human androgen receptor DNA binding domain (amino acids 505-635) (human), P10275
T1 chain: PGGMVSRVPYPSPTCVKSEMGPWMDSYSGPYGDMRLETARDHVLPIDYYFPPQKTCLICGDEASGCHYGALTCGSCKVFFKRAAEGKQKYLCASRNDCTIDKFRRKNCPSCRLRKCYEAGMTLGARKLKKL

T2: glutathione S-transferase/human androgen receptor DNA binding domain (amino acids 505-635) (GST-DBD) (Homo sapiens, UniProt P10275)
T2 construct: gift of Dr. Steven Balk (neither purchased nor made by the applicant)
T2 sequence (P10275 505-635): T1 chain

T3: glutathione S-transferase/human androgen receptor DNA binding domain (amino acids 505-635) (human, UniProt P10275 505-635)
T3 construct: Fusion protein obtained from Dr. Steven Balk; also called GST-DBD; not shown: glutathione S-transferase fusion partner
T3 sequence (looked up): T1 chain

B1: Ac-SVPFHHTPVS-NH2 (peptide)
peptide: Ac-SVPFHHTPVS-NH2
notes: synthetic peptide of the series based on amino acids 423-548 of ARIP3; also called Cmpd No. 13
B2: Ac-TIESSS-NH2 (peptide)
peptide: Ac-TIESSS-NH2
notes: truncation of Cmpd 10; also called Cmpd No. 47
B3: Ac-TIESSSD-NH2 (peptide)
peptide: Ac-TIESSSD-NH2
notes: truncation of Cmpd 10; also called Cmpd No. 29
B4: Ac-FMSETQSSPTK-NH2 (peptide)
peptide: Ac-FMSETQSSPTK-NH2
notes: synthetic peptide of the series based on amino acids 423-548 of ARIP3; also called Cmpd No. 11
B5: Ac-FMSETQSSPTKGVLMYQPSSV-NH2 (peptide)
peptide: Ac-FMSETQSSPTKGVLMYQPSSV-NH2
notes: synthetic peptide of the series based on amino acids 423-548 of ARIP3; also called Cmpd No. 5
B6: Ac-LTIESSSDE-NH2 (peptide)
peptide: Ac-LTIESSSDE-NH2
notes: truncation of Cmpd 10; also called Cmpd No. 25
B7: Ac-IESSSDE-NH2 (peptide)
peptide: Ac-IESSSDE-NH2
notes: truncation of Cmpd 10; also called Cmpd No. 53
B8: Ac-LTIESSSDEEEDPPAKRKAIF-NH2 (peptide)
peptide: Ac-LTIESSSDEEEDPPAKRKAIF-NH2
notes: synthetic peptide of the series based on amino acids 423-548 of ARIP3; also called Cmpd No. 3
B9: Ac-IESFSD-NH2 (peptide)
peptide: Ac-IESFSD-NH2
notes: variant of Cmpd 49 (IESSSD); also called Cmpd No. 34
B10: Ac-IESVSD-NH2 (peptide)
peptide: Ac-IESVSD-NH2
notes: variant of Cmpd 49 (IESSSD); also called Cmpd No. 36
B11: Ac-IESSSD-NH2 (peptide)
peptide: Ac-IESSSD-NH2
notes: truncation of Cmpd 10; also called Cmpd No. 49
B12: Ac-SVPFHHTPVSSMSSDL-NH2 (peptide)
peptide: Ac-SVPFHHTPVSSMSSDL-NH2
notes: synthetic peptide of the series based on amino acids 423-548 of ARIP3; also called Cmpd No. 12
B13: Ac-KVESSSVFSKPASVTVASDA-NH2 (peptide)
peptide: Ac-KVESSSVFSKPASVTVASDA-NH2
notes: synthetic peptide of the series based on amino acids 423-548 of ARIP3; also called Cmpd No. 1
B14: Ac-LTIESSSDEE-NH2 (peptide)
peptide: Ac-LTIESSSDEE-NH2
notes: synthetic peptide of the series based on amino acids 423-548 of ARIP3; also called Cmpd No. 10
B15: Ac-PAAIPPSLTDYSVPFHHTPVSSMSSDL-NH2 (peptide)
peptide: Ac-PAAIPPSLTDYSVPFHHTPVSSMSSDL-NH2
notes: synthetic peptide of the series based on amino acids 423-548 of ARIP3; also called Cmpd No. 8

Biological target: T1, glutathione S-transferase/human …
Assay: not given
Conditions: not given
Work on H-YGRKKRRQRRRGGGGLTIESSSDEE-NH2 [H-…-NH2] yielded an IC50 of 6.5 µM.

Each molecule was assayed against T2, glutathione S-transferase/human androgen receptor DNA binding domain (amino acids 505-635) (GST-DBD) (assay: ARE binding assay (competition binding, electrochemiluminescence)). Conditions: not given.
Protocol: Anti-glutathione S-transferase monoclonal antibody was purchased from Upstate Biotechnology, Inc., Lake Placid, N.Y. (catalogue #05-311). Prior to ruthenium labeling, 1 mg/ml antibody was dialyzed against phosphate-buffered saline, pH 7.2, for 24 hours at 4° C. A 0.5 mg of antibody was incubated with 18.8 μg Origen TAG-succinimidyl ester (IGEN, International, Inc. Gaithersburg, Md., catalogue # 110034) for 1 hour at room temperature in the dark. The reaction was stopped with 20 μl 2M glycine for 10 minutes in the dark. Free label was removed with a NAP-5 column. Protein concentration was determined using the micro-BCA assay (catalogue #23235ZZ) from Pierce, Rockford, Ill.
Oligonucleotides were purchased from Integrated DNA Technologies, Inc., Coralville, Iowa. One nmole of each complementary oligonucleotide, Biotin-5′-[…]-3′ (SEQ ID NO:54) and 5′-[…]-3′ (SEQ ID NO:55) was added to 10 μl water and heated to 95° C. for 2 minutes. NaCl was added to a final concentration of 50 mM and the oligonucleotides were allowed to anneal at room temperature. After 1 hour, the annealed oligonucleotides were resuspended in 1 ml water.
The glutathione S-transferase/human androgen receptor DNA binding domain (amino acids 505-635) (GST-DBD) was obtained from Dr. Steven Balk. Synthesis of similar androgen receptor fusion proteins has been previously described (Sun, Z., Pan, J. and Balk, S. P. (1997) Nucleic Acids Research 25:3318-3325). The competition binding assay was performed in phosphate-buffered saline, pH 7.2, containing 100 ng/ml poly dI/dC (Sigma-Aldrich Co., St. Louis, Mo., catalogue #P4929) in a final volume of 0.2 ml by incubating 3 ng oligonucleotide, 200 ng GST-DBD, 30 ng antibody and the desired concentration of test compound. After 1.5 hours in the dark at room temperature, 12.5 μg streptavidin-coated M-280 Dynabeads (IGEN International, Inc. Gaithersburg, Md., catalogue # 402-175-02) were added and incubated while shaking for 30 minutes in the dark. Plates were analyzed on an IGEN M8 Electrochemiluminescence Detection Unit (IGEN, International, Inc. Gaithersburg, Md.).
“H-YGRKKRRQRRRGGGGLTIESSSDEE-NH2 [compound 54]” showed an IC50 of 6.5 µM.

Same assay, conditions: inhibition of binding of androgen receptor DNA binding domain to biotinylated ARE oligonucleotide; average where more than one assay, replications in parentheses; read-out: IC50
`CC[C@@H](C)[C@@H](NC(C)=O)C(=O)N[C@H](CCC(=O)O)C(=O)N[C@H](CO)C(=O)N[C@H](CO)C(=O)N[C@H](CO)C(=O)N[C@H](CC(=O)O)C(N)=O` [compound 38, Ac-iesssd-NH2] (Ac-[dI][dE][dS][dS][dS][dD]-NH2) gave an IC50 of 20 µM. `CC[C@@H](C)[C@@H](NC(=O)[C@@H](CCC(=O)O)NC(=O)[C@@H](CO)NC(=O)[C@@H](CO)NC(=O)[C@@H](CO)NC(=O)[C@@H](CC(=O)O)NC(C)=O)C(N)=O` [compound 39, Ac-dsssei-NH2] (Ac-[dD][dS][dS][dS][dE][dI]-NH2) gave an IC50 of 20 µM. For “Ac-ATIESSSDEE-NH2 [compound 16, Ac-ATIESSSDEE-NH2]”, the IC50 was 25 µM. For “Ac-DSSSEI-NH2 [compound 37, Ac-DSSSEI-NH2]”, the IC50 was 20 µM. “Ac-EDPPAKRKAIFMSETQSSPTK-NH2 [compound 4]” was tested, and the IC50 was > 50 µM. “Ac-ESSSDE-NH2 [compound 50, Ac-ESSSDE-NH2]” showed an IC50 of 11 µM. In the case of “Ac-IASASD-NH2 [compound 33, Ac-IASASD-NH2]”, the IC50 is reported as 20 µM. “Ac-IESASD-NH2 [compound 32, Ac-IESASD-NH2]” gave an IC50 of 20 µM. In the case of “Ac-IESLSD-NH2 [compound 35, Ac-IESLSD-NH2]”, the IC50 is reported as 20 µM. With “Ac-IESSSDEE-NH2 [compound 48, Ac-IESSSDEE-NH2]” the IC50 was > 50 µM. In the case of “Ac-KGVLMYQSSVRVPSVTSVDP-NH2 [compound 6]”, the IC50 is reported as > 50 µM. In the case of “Ac-KPASVTVASDASKKIDVIDL-NH2 [compound 2]”, the IC50 is reported as > 50 µM. “Ac-KVESSSVFS-NH2 [compound 9, Ac-KVESSSVFS-NH2]” was tested, and the IC50 was > 50 µM. Work on “Ac-LAIESSSDEE-NH2 [compound 17, Ac-LAIESSSDEE-NH2]” yielded an IC50 of 25 µM. “Ac-LTAESSSDEE-NH2 [compound 18, Ac-LTAESSSDEE-NH2]” showed an IC50 of 25 µM. For “Ac-LTIESS-NH2 [compound 26, Ac-LTIESS-NH2]”, the IC50 was > 50 µM. Work on “Ac-LTIESSSAEE-NH2 [compound 22, Ac-LTIESSSAEE-NH2]” yielded an IC50 of 20 µM. Work on “Ac-LTIESSSDEE-OH [compound 30, Ac-LTIESSSDEE-OH]” yielded an IC50 of 7.4 µM. “Ac-LTIESSSDEEEDPPAKRKAIF-NH2 [compound 3]” was tested, and the IC50 was 22 µM. With “Ac-SSSDEE-NH2 [compound 51, Ac-SSSDEE-NH2]” the IC50 was 22 µM. For “Ac-TIESSSDE-NH2 [compound 28, Ac-TIESSSDE-NH2]”, the IC50 was 22 µM. “Ac-TIESSSDEE-NH2 [compound 27, Ac-TIESSSDEE-NH2]” showed an IC50 of 22 µM. Work on “Ac-TPVSSMSSDL-NH2 [compound 14, Ac-TPVSSMSSDL-NH2]” yielded an IC50 of 7.4 µM. In the case of “Ac-VRVPSVTSVDPAAIPPSLTDY-NH2 [compound 7]”, the IC50 is reported as > 50 µM. “H-LTIESSSDEE-NH2 [compound 15, H-LTIESSSDEE-NH2]” was tested, and the IC50 was 25 µM.

These molecules were tested against glutathione S-transferase/human androgen receptor DNA binding domain (amino acids 505-635) (human) (UniProt P10275) (assay: ECL competition binding assay (IGEN M8): peptide against GST-DBD binding to biotinylated ARE oligonucleotide). Conditions: not given.
Molecule Ac-DSSSEI-NH2 (also called Cmpd No. 37) [Ac-DSSSEI-NH2] has an IC50 of 20 µM.

Each molecule was assayed against T3, glutathione S-transferase/human … in the same assay as above. Conditions: not given.
Work on B1 yielded an IC50 of 27 µM. With B2 the IC50 was 12 µM. B3 gave an IC50 of 40 µM. For B4, the IC50 was 5.6 µM. Work on B5 yielded an IC50 of 15 µM. Ac-DSSSEI-NH2 (also called Cmpd No. 37) [Ac-DSSSEI-NH2] was tested, and the IC50 was 20 µM. B6 was tested, and the IC50 was 30 µM. B7 was tested, and the IC50 was 19 µM. B8 was tested, and the IC50 was 22 µM. B9 showed an IC50 of 63 µM. Work on B10 yielded an IC50 of 5.3 µM. Work on B11 yielded an IC50 of 4.3 µM. B12 gave an IC50 of 8.2 µM. B13 showed an IC50 of 34 µM. B14 showed an IC50 of 4.7 µM. Work on Ac-LTIESASDEE-NH2 (also called Cmpd No. 21) [Ac-LTIESASDEE-NH2] yielded an IC50 of 1.5 µM. For Ac-LTIESSSDEA-NH2 (also called Cmpd No. 24) [Ac-LTIESSSDEA-NH2], the IC50 was 2.6 µM. For Ac-LTIASSSDEE-NH2 (also called Cmpd No. 19) [Ac-LTIASSSDEE-NH2], the IC50 was 6.6 µM. Work on Ac-LTIESSSDAE-NH2 (also called Cmpd No. 23) [Ac-LTIESSSDAE-NH2] yielded an IC50 of 14 µM. Work on Ac-LTIEASSDEE-NH2 (also called Cmpd No. 20) [Ac-LTIEASSDEE-NH2] yielded an IC50 of 18 µM. B15 gave an IC50 of 28 µM.

Biological target: T1, glutathione S-transferase/human …
Assay: as above
Conditions: not given
With Ac-ESSSDE-NH2 [Ac-ESSSDE-NH2] the IC50 was 11 µM. In the case of Ac-IESLSD-NH2 [Ac-IESLSD-NH2], the IC50 is reported as 20 µM.
